The text below walks through data of US6232450A, “Inhibition of human fucosyltransferases with N-linked Lewis-x and LacNAc analogs” (The Scripps Research Institute, priority 1999, dated 2001).

Test system in the first series: not given
Test: not given
The conditions noted are these: known from literature (Hanozet et al.); cited from earlier work.
For the molecule `C[C@@H]1N[C@H](COCc2ccccc2)[C@@H](OCc2ccccc2)[C@H](OCc2ccccc2)[C@@H]1OCc1ccccc1` [compound 5], the pKa entry is reported as “unusually low”.

A further series has as its target T1, FucT V (Homo sapiens, UniProt Q11128).
T1 sequence (Q11128 1-374): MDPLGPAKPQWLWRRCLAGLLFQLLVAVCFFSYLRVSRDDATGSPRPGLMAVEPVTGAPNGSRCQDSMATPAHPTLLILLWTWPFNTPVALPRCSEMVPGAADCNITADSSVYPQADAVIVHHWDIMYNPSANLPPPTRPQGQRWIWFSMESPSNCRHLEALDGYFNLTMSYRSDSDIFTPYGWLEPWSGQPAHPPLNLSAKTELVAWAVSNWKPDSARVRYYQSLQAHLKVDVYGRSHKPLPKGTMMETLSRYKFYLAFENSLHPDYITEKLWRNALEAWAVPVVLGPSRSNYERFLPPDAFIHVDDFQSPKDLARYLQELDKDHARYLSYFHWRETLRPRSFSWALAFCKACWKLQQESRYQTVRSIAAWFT
The series can be described thus: Test whether inhibitor is a slow substrate or an inactivator of FucT V (pre-incubation, then GDP-[U-14C]-fucose transfer). The class given is biochemical. As to conditions: 0.010 mM inhibitor, 2.1 munits FucT V, 0.30 mM LacNAc-b-O-(CH2)5CO2CH3, 10 mM MnCl2, 100 mM MES pH 6.0, incubation 0-80 min at room temperature. The protocol:
A 0.350 mL solution that contained 10 mM MnCl2, 2.1 munits FucT V, 0.30 mM LacNAc-b-O-(CH2)5 CO2 CH3, 0.010 mM inhibitor (7a, 7b, 7c, 8a, 8b, or 8c), and 100 mM MES (pH 6.0). This solution was subject to incubation at room temperature for various time periods (0, 3, 10, 20, 30, 60, 80 min). After the incubation time, a 0.050 mL aliquot was removed and GDP-[U-^14 C]-fucose was added to a final concentration of 0.050 mM to initiate the fucosyltransfer reaction. After a 30 minute reaction time period, the solution was passed through a Dowex 1 column and the amount of product determined.
Consider `CCCO[C@@H]1O[C@H](COCc2ccccc2)[C@@H](O)[C@H](NCCN2[C@H](COCc3ccccc3)[C@@H](OCc3ccccc3)[C@H](OCc3ccccc3)[C@H](OCc3ccccc3)[C@@H]2C)[C@H]1NC(C)=O` [7a], for which the “slow substrate or inactivator of FucT V” value is reported as “not a slow substrate or an inactivator”.

Turning to `CCCO[C@@H]1O[C@H](CO)[C@@H](O)[C@H](N(C)CCN2[C@H](CO)[C@@H](O)[C@H](O)[C@H](O)[C@@H]2C)[C@H]1NC(C)=O` [7b], the “slow substrate or inactivator of FucT V” value was “not a slow substrate or an inactivator”.

Consider `CCCO[C@@H]1O[C@H](CO)[C@@H](O)[C@H](NCCN2[C@H](CO)[C@@H](O)[C@H](O)[C@H](O)[C@@H]2C)[C@H]1NC(C)=O` [7c], for which the “slow substrate or inactivator of FucT V” value is “not a slow substrate or an inactivator”.

For `CCCO[C@@H]1O[C@H](COCc2ccccc2)[C@@H](O[C@@H]2O[C@H](CO)[C@H](O)[C@H](O)[C@H]2O)[C@H](NCCN2[C@H](COCc3ccccc3)[C@@H](OCc3ccccc3)[C@H](OCc3ccccc3)[C@H](OCc3ccccc3)[C@@H]2C)[C@H]1NC(C)=O` [8a], the “slow substrate or inactivator of FucT V” value is on record as “not a slow substrate or an inactivator”.

For the molecule `CCCO[C@@H]1O[C@H](CO)[C@@H](O[C@@H]2O[C@H](CO)[C@H](O)[C@H](O)[C@H]2O)[C@H](N(C)CCN2[C@H](CO)[C@@H](O)[C@H](O)[C@H](O)[C@@H]2C)[C@H]1NC(C)=O` [8b], the “slow substrate or inactivator of FucT V” value is given as “not a slow substrate or an inactivator”.

With `CCCO[C@@H]1O[C@H](CO)[C@@H](O[C@@H]2O[C@H](CO)[C@H](O)[C@H](O)[C@H]2O)[C@H](NCCN2[C@H](CO)[C@@H](O)[C@H](O)[C@H](O)[C@@H]2C)[C@H]1NC(C)=O` [8c], the “slow substrate or inactivator of FucT V” value is “not a slow substrate or an inactivator”.
